This is an account of results in patent US8093043B2, “β-TrCP1, β-TrCP2 and RSK1 or RSK2 inhibitors and methods for sensitizing target cells to apoptosis” (New York University, priority 2008, dated 2012).

The test system of data set [1] is BimEL. Description: BimEL accumulation in MEFs after pharmacological RSK inhibition (immunoblot). The class given is cell-based, mouse. The following applies: MEFs, 0, 1 and 5 μM BI-D1870 for 12 hours, immunoblot for Bim. The method, then: MEFs were treated with 0, 1 and 5 μM BI-D1870 for 12 hours. Cell extracts were then immunoblotted for the Bim and HSP70 (control) proteins.
Western Blotting (IP-Western). Immuno-blotting was conducted essentially as described in Donzelli et al. (2002), supra. Three pieces of the Whatman paper were wetted in Western transfer buffer (48 mM Tris Base, 39 mM Glycine, 0.0375% SDS, and 20% Methanol in ddH2O), excess of buffer was removed and pieces were placed onto the platinum anode (BIO-RAD semi-dry trans-blot SD). The nitrocellulose was wetted in the same buffer and placed onto the Whatman paper. The gel was wetted in the transfer buffer for 5 to 10 seconds and placed onto the nitrocellulose. Three pieces of Whatman paper were wetted and, removing excess of buffer, placed onto the gel. Air bubbles were removed throughout this procedure. The trans-blot cathode was placed onto the stack. The gel was transferred at a constant voltage between 15 to 25V for 30 minutes.
Background: Immunoblotting shows a protein as a band on a membrane.

The test system of the next data set is primary thymocytes. Description: Cell death of primary thymocytes from Bim+/+ or Bim−/− mice (propidium iodide flow cytometry). Conditions: primary thymocytes (T cells) from Bim+/+ or Bim−/− mice, 10 mM BI-D1870, 0-5 days. The format is cell-based, mouse. The method, then:
Cell death was induced by addition of 10 mM BI-D1870 for 0-5 days in primary thymocytes obtained from Bim+/+ or Bim−/− mice. Cell viability was determined by flow cytometric analysis by staining the cells with propidium iodide. Cell debris was excluded from analysis based on its forward and sideward scatter characteristics. The experiment was performed in triplicate using 3 Bim+/+ and 2 Bim−/− mice for each experiment. Data shown are the means±1 SD.
Cells. HeLa (from ATCC) and U2OS (from ATCC) cells were cultured essentially as described in Donzelli et al. (EMBO J., 2002; 21:4875-84). Cells were grown at 37° C. in a 5% CO2 atmosphere in Dulbecco's modified Eagle's medium (Euroclone) supplemented with 10% bovine calf serum (Hyclone) and 2 mM L-glutamine (Euroclone), or in DMEM containing 5% fetal calf serum (FCS, from GIBCO). HEK293 (from ATCC), Bim−/− MEFs and Bax−/−; Bak−/− immortalized mouse embryo fibroblasts (MEFs) (from Dr. Huang at The Walter and Eliza Hall Institute of Medical Research, Australia; see Bouillet et al., Science, 1999, 286:1735-1738; Lindsten et al., Mol. Cell, 2000, 6:1389-1399) were maintained in Dulbecco's modified Eagle's medium (DMEM) containing 10% fetal bovine serum (FBS, from GIBCO). H1650 and HCC827 cells (both from ATCC) were maintained in RPMI-1640 medium (GIBCO) containing 10% FBS. Primary thymocytes were obtained from 6 week Bim+/+ or Bim−/− mice. […]
On the technique in general: In flow cytometry, cells or beads pass a laser one at a time.

The test system of data set [2] is BimEL. Description: PMA-induced BimEL degradation in HEK293 cells (immunoblot). The format is cell-based, human. An excerpt:
siRNA. β-TrCP1/2 siRNA […] (SEQ ID NO:19) (Guardavaccaro et al., In vivo Dev Cell, 2003, 4:799-812; Margottin-Goguet cl al., Dev Cell, 2003; 4:813-26); RSK1 siRNA […] (SEQ ID NO:21) and RSK2 siRNA […] (SEQ ID NO:22) (Anjum et al., Curr Biol., 2005, 15:1762-7; Roux et al., J Biol. Chem., 2007, 282:14056-64). Control oligonucleotide was a dsRNA oligo to LacZ mRNA […] (SEQ ID NO:28). All siRNA oligonucleotides were from Dharmacon Research Inc. (Lafayette, Colo.). Cells were transfected with siRNA duplexes by Oligofectamine (Invitrogen, Carlsbad, Calif.), following manufacturer's instructions. Cells were transfected with the oligos twice (at 24 and 48 hours after plating) using oligofectamine (Invitrogen) for HEK293, HiPerFect (Qiagen) for NSCLC cell lines, or the AMAXA nucleofactor (Amaxa Inc. Gaithersburg, Md.) for CD4+ human T cell blasts at day 5, according to manufacturer's recommendations. 24 or 48 hours after the last transfection, cells were collected and analyzed.
(§1) When βTrCP1/2 is silenced (FIG. 4A) or RSK1/2 is silenced (FIG. 4B), BimEL's degradation (induced with PMA) is inhibited. […] For the experiments shown in FIG. 4A, HEK293 cells were treated with control siRNA (SEQ ID NO:28) or siRNA targeting βTrcp1/2 (SEQ ID NO:19). 48 hours after siRNA treatment cells were treated with PMA or with PMA+MG 132 (last four lanes) for indicated times. Protein extracts were immunoblotted for the indicated proteins.
For the experiments shown in FIG. 4B, HEK293 cells were treated with control siRNA (SEQ ID NO:28) or siRNA targeting RSK 1 (SEQ ID NO:21) and RSK2 (SEQ ID NO:22). 48 hours after siRNA treatment cells were treated with PMA for indicated times. Protein extracts were immunoblotted for the indicated proteins.

Data set [3] has as its system BimEL. Description: In vivo phosphorylation of BimEL on Ser93/94/98 (immunoprecipitation, phospho-specific antibody). The class given is cell-based. The following applies: cells serum deprived 24 hours, PMA for 10 minutes. The procedure: Serines 93, 94 and 98 were also shown to be phosphorylated in vivo following activation of ERK by either serum addition or PMA (FIG. 2C). In this experiment, BimEL from cells treated with PMA as well as from cells released from serum starvation were immunoprecipitated. In the experiments in FIG. 2C, cells were serum deprived (SD) for 24 hours, serum released (SR) for 10 minutes (lane 2) or treated with PMA for 10 minutes (lane 3-5). Whole cell extracts (WCE) were subjected to immunoprecipitation using HA resin (α-HA) followed by immunoblotting for β-TrCP1, and antiHA (for BimEL).

The next data set deals with H1650 cells. Conditions: EGFR mutant NSCLC; cited from earlier work.
The next data set relates to βTrCP. Description: βTrCP knockdown efficiency (Cdc25A accumulation, RT-PCR). The format is cell-based, human. The following applies: HEK293 cells; accumulation of Cdc25A, confirmed by RT-PCR. The method, then:
FIGS. 8A-E represent quantitative analysis of βTrCP1 mRNA in HEK293, HCC827, H1650 cell lines and CD4+ human T cells treated with an siRNA oligo targeting both βTrCP1 and βTrCP2 mRNAs (SEQ ID NO:19). Representative examples showing knockdown efficiency for βTrCP siRNA by RT-PCR analysis with oligo-dT-primed, reverse-transcribed cDNA derived from total RNA that was prepared from the indicated cells transfected with either control or βTrCP siRNAs. Quantitative PCR was conducted using locus-specific primers: forward […] (SEQ ID NO:29) and reverse […] (SEQ ID NO:30) (n=3, ±SD). For HEK293 cells, knockdown efficiency was additionally analyzed by βTrCP1 immunoprecipitation and subsequent immunoblot analysis (D).
as §1

The target in the next data set is T1, β-TrCP1 (Homo sapiens, UniProt Q9Y297).
T1 construct: host or cells: cell-free in vitro transcription/translation in reticulocyte lysate
T1 sequence (Q9Y297 1-605): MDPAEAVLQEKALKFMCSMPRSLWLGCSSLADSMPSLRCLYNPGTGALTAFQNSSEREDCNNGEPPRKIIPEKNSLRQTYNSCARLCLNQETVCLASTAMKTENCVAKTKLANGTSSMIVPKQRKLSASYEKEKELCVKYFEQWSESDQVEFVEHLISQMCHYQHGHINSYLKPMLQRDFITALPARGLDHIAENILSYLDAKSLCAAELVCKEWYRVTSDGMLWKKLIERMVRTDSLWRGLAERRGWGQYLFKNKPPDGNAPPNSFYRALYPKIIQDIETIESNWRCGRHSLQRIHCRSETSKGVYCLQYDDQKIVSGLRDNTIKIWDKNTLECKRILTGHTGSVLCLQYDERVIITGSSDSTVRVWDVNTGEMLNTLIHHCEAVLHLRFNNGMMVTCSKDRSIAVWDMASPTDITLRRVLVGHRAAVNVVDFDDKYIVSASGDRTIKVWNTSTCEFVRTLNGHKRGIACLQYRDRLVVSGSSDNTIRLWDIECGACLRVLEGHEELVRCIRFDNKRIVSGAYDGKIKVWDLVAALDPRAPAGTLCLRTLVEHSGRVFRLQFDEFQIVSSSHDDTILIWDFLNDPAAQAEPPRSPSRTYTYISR
Description: In vitro peptide binding assay with 35S-labeled in vitro translated β-TrCP1. Conditions: autoradiography; Fbxw2 and Fbxw4 as comparison. The procedure: Peptide binding assay. The peptides were coupled to agarose beads using the Aminolink Kit (Pierce, Rockford, Ill.). Coupled BimEL, β-TrCP1/2, RSK1/2, or Cdc25A peptides (10 mg) were incubated with ^35S-methionine-labeled in vitro-translated β-TrCP1/2, FBXW2 or FBXW4, using the TNT-coupled reticulocyte lysate system (Promega, Madison, Wis.) in the presence of 5 μCi of ^35S-labeled methionine (Amersham Biosciences, Piscataway, N.Y.). Agarose beads were washed with RIPA buffer and binding was assayed by SDS-PAGE followed by autoradiography.
In this experiment in vitro binding assays were performed using in, vitro translated β-TrCP1 and a purified BimEL peptide composed of 13 amino-acids containing the degron motif. The in vitro binding assays were performed between ^35S-labeled in vitro transcribed/translated β-Trcp1, Fbxw2 and Fbxw4 and beads-coupled BimEL peptide ^88[…]^100 (SEQ ID NO:24) or BimEL phosphopeptide ^88CLSRSpSpSGYFpSFD^100 (SEQ ID NO:25). Bound proteins were eluted and subjected to electrophoresis and autoradiography.

The mark [4] stands for this setting: siRNAs targeting RSK1 and RSK2 used together, PMA 48 hours after siRNA.

“Also recorded” adds a separate entry of the source. Non-standard residues stand in square brackets, D forms with d. Residues, ends and D or L forms follow the SMILES beside them. No end group written: not given here. *: point of attachment. pS = N[C@@H](COP(=O)(O)O)C(=O)O; Cbz = O=C(OCc1ccccc1)*

Take `CC(C)CCN1c2nc(Nc3cc(F)c(O)c(F)c3)ncc2N(C)C(=O)C1C` (stereo not shown) [BI-D1870]: the BimEL accumulation result in the data set on BimEL [1] is recorded as “induced BimEL accumulation; also recorded: induces an accumulation of BimEL”. In addition, in the data set on primary thymocytes, the “Bim-dependent cell death / cell viability” value is “from wild-type mice, but not from Bim^−/− mice, died; also recorded: induces Bim-dependent cell death”. For `CC(C)C[C@@H](C=O)NC(=O)[C@H](CC(C)C)NC(=O)[C@H](CC(C)C)NC(=O)OCc1ccccc1` [MG132] (Cbz-Leu-Leu-Leu-aldehyde), the “effect on PMA-induced BimEL degradation” value with BimEL [2] (PMA+MG 132) is “Inhibition of BimEL's degradation”. Turning to `CCCCCCCCCCCCCC(=O)O[C@@H]1[C@@H](C)[C@@]2(O)[C@@H](C=C(CO)C[C@]3(O)C(=O)C(C)=C[C@@H]23)[C@@H]2C(C)(C)[C@]12OC(C)=O` [PMA], the “phosphorylation of BimEL on Ser93/94/98” value in the data set with BimEL [3] is “rapidly induced”. Consider `COc1cc2ncnc(Nc3ccc(F)c(Cl)c3)c2cc1OCCCN1CCOCC1` [gefitinib], for which, in the data set with H1650 cells, the sensitivity to gefitinib result is listed as “not”.

As for “AGCGCUGAGAAUGGACAGCAA (listed as RNA, chemistry not given here; listed as Homo sapiens) [SEQ ID NO:22, siRNA for human RSK2]”, the “effect on PMA-induced BimEL degradation” value with BimEL [2] (setting [4]) is “counteracted the effect of PMA on BimEL degradation, stabilizing BimEL”. For the molecule “CCCAACAUCAUCACUCUGAAA (listed as RNA, chemistry not given here; listed as Homo sapiens) [SEQ ID NO:21, siRNA for human RSK1]”, in the data set on BimEL [2] (setting [4]), the “effect on PMA-induced BimEL degradation” value is reported as “counteracted the effect of PMA on BimEL degradation, stabilizing BimEL”. As to GUGGAAUUUGUGGAACAUC [SEQ ID NO:19], the “effect on PMA-induced BimEL degradation” value in the data set on BimEL [2] (siRNA targeting βTrcp1/2, PMA 48 hours after siRNA) is on record as “counteracted the effect of PMA on BimEL degradation, stabilizing BimEL”. In addition, in the data set on βTrCP, the βTrCP knockdown result is “efficient βTrCP knockdown”. Consider “^88CLSRSpSpSGYFpSFD^100 (CLSRS[pS][pS]GYF[pS]FD; listed as Homo sapiens) [SEQ ID NO:25, BimEL phosphopeptide of 13 amino acids containing the degron motif]”, for which, in the data set with β-TrCP1, the “binding of βTrCP1 to beads-coupled BimEL peptide” value is given as “binds specifically”.
